Key:
[1] = target: T1, Proline utilization A (BjPutA) (Bradyrhizobium diazoefficiens, UniProt Q89E26, C792A); assay: X-ray crystal structure, […] Å, crystals soaked in […] L-proline; assay type: binding
T1 construct: gene putA; BjPutA C792A; 1949 of 2002 expected residues modeled in the asymmetric unit (dimer)
T1 sequence (Q89E26 1-999 C792A): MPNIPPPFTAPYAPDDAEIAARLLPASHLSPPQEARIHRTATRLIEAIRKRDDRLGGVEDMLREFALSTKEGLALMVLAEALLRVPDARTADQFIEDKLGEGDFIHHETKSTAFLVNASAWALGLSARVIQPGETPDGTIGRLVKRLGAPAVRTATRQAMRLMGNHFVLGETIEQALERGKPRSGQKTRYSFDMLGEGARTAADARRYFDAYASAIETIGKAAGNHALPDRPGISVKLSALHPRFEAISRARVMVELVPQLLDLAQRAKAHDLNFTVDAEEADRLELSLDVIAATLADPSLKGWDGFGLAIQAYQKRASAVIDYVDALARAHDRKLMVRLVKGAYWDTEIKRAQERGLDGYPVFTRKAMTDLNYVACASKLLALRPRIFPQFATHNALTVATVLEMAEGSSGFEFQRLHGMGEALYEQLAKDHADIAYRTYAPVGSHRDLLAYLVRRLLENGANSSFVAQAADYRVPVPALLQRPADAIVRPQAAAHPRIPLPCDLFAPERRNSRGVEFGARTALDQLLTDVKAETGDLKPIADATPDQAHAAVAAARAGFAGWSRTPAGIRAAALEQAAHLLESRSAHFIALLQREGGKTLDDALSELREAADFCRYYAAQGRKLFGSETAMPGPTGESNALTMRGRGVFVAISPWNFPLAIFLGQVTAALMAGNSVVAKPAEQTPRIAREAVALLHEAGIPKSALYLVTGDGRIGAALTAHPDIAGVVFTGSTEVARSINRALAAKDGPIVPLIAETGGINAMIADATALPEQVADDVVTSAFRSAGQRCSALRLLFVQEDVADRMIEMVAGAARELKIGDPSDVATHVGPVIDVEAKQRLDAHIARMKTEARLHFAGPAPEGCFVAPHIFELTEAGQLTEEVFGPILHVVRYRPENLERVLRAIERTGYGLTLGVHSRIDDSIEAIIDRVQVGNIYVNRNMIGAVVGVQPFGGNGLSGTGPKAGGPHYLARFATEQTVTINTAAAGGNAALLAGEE

[2] = target: T2, Proline utilization A (BjPutA) (Bradyrhizobium diazoefficiens, UniProt Q89E26, R456M); assay: steady-state GSALDH kinetics (NADH formation at […] nm), global fit to competitive inhibition; assay type: biochemical
T2 construct: gene putA; BjPutA R456M mutant (GSALDH activity measured)
T2 sequence (Q89E26 1-999 R456M): T1 sequence (Q89E26 1-999 C792A)

[3] = test system: T3, NC(CCC=O)C(=O)O; assay: purified protein; assay type: biochemical, Bradyrhizobium diazoefficiens; conditions: NAD+ GSAL site of the GSALDH active site
T3 construct: BjPutA R456M mutant (GSALDH activity measured)

Question: O=C(O)[C@@H]1CCCN1 [L-proline] was tested. Which “X-ray crystal structure, 2.15 Å, crystals soaked in 2 M L-proline” value [1] did it give?
Answer: The carboxylate group interacts with Arg791, Ser793, and the backbone amine groups of Gly946 and Ala947.

Question: And the Ki [2]?
Answer: 46.3 mM

Question: With “Proline utilization A (BjPutA) (Bradyrhizobium diazoefficiens USDA 110; R456M)” as the molecule, how does the Km [3] read?
Answer: 2400 µM

— article PMC5786444, “Structural Basis for the Substrate Inhibition of Proline Utilization A by Proline” (Molecules : A Journal of Synthetic Chemistry and Natural …, 2017)
